The results in this text go back to patent US5843999A, “2-phenylazulene derivatives and a manufacturing method of these compounds” (Kotobuki Seiyaku Co., Ltd., priority 1996, dated 1998).

By IC50 is commonly meant the midpoint of a concentration-inhibition curve.

Bounds are passed on as bounds.

One assay concerns the target COX-1 (Homo sapiens, UniProt P23219). Kind of assay: Inhibitory activity on COX-1 (PGE2 production from arachidonic acid, PGE2 ELISA; Needleman method). In kind it is biochemical. The settings on record: 1 mM arachidonic acid, 1 μM hematin, pH 8.0, 37° C., 10 min. As to the method: (§1) Pharmacological experiment are as follows. Inhibitory activity of compounds on COX-1 and COX-2 were assayed according to the method of Needleman (J. Biol. Chem., 254, 9772, 1979). One unit of COX-1 or COX-2 enzyme, suspended with Tris-HCl buffer (pH 8.0, 500 μl) containing 1 μM hematin as co-factor, was incubated with compound and 1 mM arachidonic acid at 37° C. for 10 min. The reaction was stopped with 50 mM indomethacin (50 μl), and amounts of PGE2 in the reaction mixture was assayed using PGE2 ELISA system.

Another assay deals with T1, COX-2 (Homo sapiens, UniProt P35354).
T1 sequence (P35354 18-604): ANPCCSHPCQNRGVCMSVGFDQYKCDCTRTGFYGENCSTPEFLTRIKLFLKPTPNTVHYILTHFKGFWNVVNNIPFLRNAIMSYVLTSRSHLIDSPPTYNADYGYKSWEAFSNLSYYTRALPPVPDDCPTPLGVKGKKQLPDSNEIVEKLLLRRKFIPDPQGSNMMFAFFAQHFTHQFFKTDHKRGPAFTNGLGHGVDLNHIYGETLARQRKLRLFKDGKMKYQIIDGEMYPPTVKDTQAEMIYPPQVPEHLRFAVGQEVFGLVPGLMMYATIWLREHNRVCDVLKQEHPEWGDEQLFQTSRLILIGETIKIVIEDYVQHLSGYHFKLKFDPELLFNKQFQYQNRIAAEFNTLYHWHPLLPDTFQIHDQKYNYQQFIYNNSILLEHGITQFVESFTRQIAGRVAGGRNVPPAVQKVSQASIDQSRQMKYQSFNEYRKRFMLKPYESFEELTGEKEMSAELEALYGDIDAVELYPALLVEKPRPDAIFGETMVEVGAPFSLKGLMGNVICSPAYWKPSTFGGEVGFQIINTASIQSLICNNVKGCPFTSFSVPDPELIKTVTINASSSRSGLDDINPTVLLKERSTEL
Kind of assay: Inhibitory activity on COX-2 (PGE2 production from arachidonic acid, PGE2 ELISA; Needleman method). The format is biochemical. Conditions: 1 mM arachidonic acid, 1 μM hematin, pH 8.0, 37° C., 10 min. The protocol:
as §1
(In general: ELISA stands for enzyme-linked immunosorbent assay.)

Sequence of COX-1 (P23219 24-599): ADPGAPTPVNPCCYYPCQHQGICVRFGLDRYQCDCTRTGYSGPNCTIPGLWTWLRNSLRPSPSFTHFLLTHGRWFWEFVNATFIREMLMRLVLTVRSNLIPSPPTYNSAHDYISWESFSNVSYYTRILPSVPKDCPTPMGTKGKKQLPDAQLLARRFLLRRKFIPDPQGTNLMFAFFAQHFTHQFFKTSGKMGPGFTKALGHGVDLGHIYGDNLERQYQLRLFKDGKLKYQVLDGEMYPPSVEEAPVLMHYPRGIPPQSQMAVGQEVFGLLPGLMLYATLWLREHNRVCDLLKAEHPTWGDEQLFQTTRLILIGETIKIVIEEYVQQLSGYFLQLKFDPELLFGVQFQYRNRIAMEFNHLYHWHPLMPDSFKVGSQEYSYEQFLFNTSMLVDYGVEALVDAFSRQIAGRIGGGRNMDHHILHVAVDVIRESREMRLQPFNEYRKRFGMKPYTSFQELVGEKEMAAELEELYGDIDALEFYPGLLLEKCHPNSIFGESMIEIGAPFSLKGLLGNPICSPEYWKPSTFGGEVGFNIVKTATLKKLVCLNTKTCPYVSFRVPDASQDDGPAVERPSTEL

Take `NS(=O)(=O)c1ccc(-c2cc3cccccc-3c2-c2ccccc2)cc1` [Compound 27, 4-(1-Phenylazulene-2-yl)phenylsulfonamide]: the 50% inhibitory concentration (IC50) was more than 10000 nM at COX-1 and 8.6 nM against COX-2.

Consider `COc1ccc(-c2c3cccccc-3cc2-c2ccc(S(N)(=O)=O)cc2)cc1Cl` [Compound 34, 4-[1-(3-Chloro4-methoxyphenyl)azulene-2-yl]phenylsulfonamide], for which the IC50 against COX-1 was 960 nM; at COX-2, 3.4 nM.

For `COc1ccc(-c2c3cccccc-3cc2-c2ccc(S(C)(=O)=O)cc2)cc1OC` [Compound 38, 1-(3,4-Dimethoxyphenyl)-2-(4-methylsulfonylphenyl)azulene], the half-inhibitory concentration (IC50) is more than 10000 nM at COX-1 and 64 nM at COX-2.

Turning to `COc1cccc(-c2c3cccccc-3cc2-c2ccc(S(N)(=O)=O)cc2)c1` [Compound 31, 4-[1-(3-Methoxyphenyl)azulene-2-yl]phenylsulfonamide], the figures for the IC50 at COX-1 and at COX-2 were more than 10000 nM and 2500 nM, respectively.

Regarding `NS(=O)(=O)c1ccc(-c2cc3cccccc-3c2-c2ccc(F)c(Cl)c2)cc1` [Compound 32, 4-[1-(3-Chloro-4-fluorophenyl)azulene-2-yl]phenylsulfonamide], the 50% inhibitory concentration (IC50) against COX-1 was more than 10000 nM; at COX-2, 12 nM.

In the case of `CS(=O)(=O)c1ccc(-c2cc3cccccc-3c2-c2cccc(F)c2)cc1` [Compound 5, 1-(3-Fluorophenyl)-2-(4-methylsulfonylphenyl)azulene], the half-inhibitory concentration (IC50) at COX-1 and against COX-2 was more than 10000 nM throughout.

For `COc1ccc(-c2c3cccccc-3cc2-c2ccc(S(N)(=O)=O)cc2)cc1OC` [Compound 39, 4-[1-(3,4-Dimethoxyphenyl)azulene-2-yl]phenylsulfonamide], the IC50 at COX-1 was more than 10000 nM; at COX-2, 290 nM.

For `CS(=O)(=O)c1ccc(-c2c(F)c3cccccc-3c2-c2ccccc2)cc1` [Compound 21, 1-Fluoro-2-(4-methylsulfonylphenyl)-3-phenylazulene], the values for the IC50 at COX-1 and at COX-2 were more than 10000 nM and 7900 nM, respectively.

As to `NS(=O)(=O)c1ccc(-c2cc3cccccc-3c2-c2cccc(F)c2)cc1` [Compound 29, 4-[1-(3-Fluorophenyl)azulene-2-yl]phenylsulfonamide], the concentration for half-maximal inhibition (IC50) at COX-1 came out at 4700 nM; on COX-2 it was 770 nM.

On to `Cc1cccc(-c2c3cccccc-3cc2-c2ccc(S(C)(=O)=O)cc2)c1` [Compound 7, 1-(3-Methylphenyl)-2-(4-methylsulfonylphenyl)azulene], for which the 50% inhibitory concentration (IC50) is more than 10000 nM on COX-1 and 48 nM on COX-2.

For the compound `Cc1cccc(-c2c3cccccc-3cc2-c2ccc(S(N)(=O)=O)cc2)c1` [Compound 30, 4-[1-(3-Methylphenyl)azulene-2-yl]phenylsulfonamide], the half-maximal inhibitory concentration (IC50) against COX-1 is 4300 nM; at COX-2, 500 nM.

For `CS(=O)(=O)c1ccc(-c2cc3cccccc-3c2-c2ccccc2)cc1` [Compound 1, 2-(4-Methylsulfonylphenyl)-1-phenylazulene], the values for the IC50 at COX-1 and at COX-2 were more than 10000 nM and 760 nM, respectively.

Turning to `CS(=O)(=O)c1ccc(-c2cc3cccccc-3c2-c2ccccc2Cl)cc1` [Compound 2, 1-(2-Chlorophenyl)-2-(4-methylsulfonylphenyl)azulene], the IC50 was more than 10000 nM against COX-1 and 6900 nM at COX-2.

As for `COc1ccc(-c2c3cccccc-3cc2-c2ccc(S(C)(=O)=O)cc2)cc1` [Compound 10, 1-(4-Methoxyphenyl)-2-(4-methylsulfonylphenyl)azulene], the IC50 is more than 10000 nM at COX-1 and 3700 nM against COX-2.

Consider `COc1cccc(-c2c3cccccc-3cc2-c2ccc(S(C)(=O)=O)cc2)c1` [Compound 9, 1-(3-Methoxyphenyl)-2-(4-methylsulfonylphenyl)azulene], for which the IC50 was more than 10000 nM against COX-1 and 4800 nM at COX-2.

In the case of `COc1ccc(-c2c3cccccc-3cc2-c2ccc(S(N)(=O)=O)cc2)cc1F` [Compound 35, 4-[l-(3-Fluoro-4-methoxyphenyl)azulene-2-yl]phenylsulfonamide], the IC50 on COX-1 amounted to 6700 nM; against COX-2 it was 22 nM.

`CS(=O)(=O)c1ccc(-c2cc3cccccc-3c2-c2ccc(F)cc2)cc1` [Compound 6, 1-(4-Fluorophenyl)-2-(4-methylsulfonylphenyl)azulene]: the half-maximal inhibitory concentration (IC50) on COX-1 is more than 10000 nM; against COX-2, 1200 nM.

With `Cc1ccc(-c2c3cccccc-3cc2-c2ccc(S(N)(=O)=O)cc2)cc1Cl` [Compound 33, 4-[1-(3-Chloro4-methylphenyl)azulene-2-yl]phenylsulfonamide], the results for the concentration for half-maximal inhibition (IC50) against COX-1 and against COX-2 were 4100 nM and 2.6 nM, respectively.

Regarding `CS(=O)(=O)c1ccc(-c2cc3cccccc-3c2-c2cccc(Cl)c2)cc1` [Compound 3, 1-(3-Chlorophenyl)-2-(4-methylsulfonylphenyl)azulene], the IC50 at COX-1 was more than 10000 nM; at COX-2 it was 9.3 nM.

With `CS(=O)(=O)c1ccc(-c2cc3cccccc-3c2-c2ccc(Cl)cc2)cc1` [Compound 4, 1-(4-Chlorophenyl)-2-(4-methylsulfonylphenyl)azulene], the IC50 at COX-1 was more than 10000 nM; against COX-2, 30 nM.

As to `COc1ccc(-c2c3cccccc-3cc2-c2ccc(S(C)(=O)=O)cc2)cc1Cl` [Compound 13, 1-(3-Chloro4-methoxyphenyl)-2-(4-methylsulfonylphenyl)azulene], the half-inhibitory concentration (IC50) was more than 10000 nM against COX-1 and 19 nM at COX-2.

As to `CS(=O)(=O)c1ccc(-c2cc3cccccc-3c2-c2ccc(F)c(Cl)c2)cc1` [Compound 11, 1-(3-Chloro-4-fluorophenyl)-2-(4-methylsulfonylphenyl)azulene], the figures for the IC50 against COX-1 and on COX-2 were more than 10000 nM and 83 nM, respectively.

`Cc1ccc(-c2c3cccccc-3cc2-c2ccc(S(C)(=O)=O)cc2)cc1` [Compound 8, 1-(4-Methylphenyl)-2-(4-methylsulfonylphenyl)azulene]: the values for the IC50 against COX-1 and against COX-2 were more than 10000 nM and 7400 nM, respectively.

Turning to `Cc1ccc(-c2c3cccccc-3cc2-c2ccc(S(C)(=O)=O)cc2)cc1Cl` [Compound 12, 1-(3-Chloro-4-methylphenyl)-2-(4-methylsulfonylphenyl)azulene], the IC50 was more than 10000 nM against COX-1 and 4.9 nM at COX-2.

As for `NS(=O)(=O)c1ccc(-c2cc3cccccc-3c2-c2cccc(Cl)c2)cc1` [Compound 28, 4-[1-(3-Chlorophenyl)azulene-2-yl]phenylsulfonamide], the figures for the half-maximal inhibitory concentration (IC50) against COX-1 and at COX-2 were 7600 nM and 2600 nM, respectively.

Consider `COc1ccc(-c2c3cccccc-3cc2-c2ccc(S(C)(=O)=O)cc2)cc1F` [Compound 14, 1-(3-Fluoro-4-methoxyphenyl)-2-(4-methylsulfonylphenyl)azulene], for which the IC50 at COX-1 was more than 10000 nM; against COX-2, 8.4 nM.
